According to patent US12234211B2, “Cycloolefin substituted heteroaromatic compounds and their use” (HUTCHISON MEDIPHARMA LIMITED, priority 2017, dated 2025):
Converted amounts (≈) assume the structure as drawn. Where two headings read alike, the source gives them in different places.

Legend:
[1] = Determination of solubility in sodium phosphate buffers; format: physicochemical; settings: for solubility at 1 h: aqueous buffer, thermodynamic from solid
Description: • Sample standard solution: About 3-5 mg test compound was accurately weighed and added into a 5 mL sample tube, 5 mL DMSO was added. Shaking and sonicating for 1 hour. • pH 2.1 sample solution: About 1 mg test compound was accurately weighed and added into a 1 mL sample tube, 1 mL pH 2.1 sodium phosphate buffer was added. Shaking. Adding test compound to the solution, if the solution is visually clear, till there is obvious insoluble in the solution. Sonicating for 1 hour. • pH 7.4 sample solution: About 1 mg test compound was accurately weighed and added into a 1 mL sample tube, 1 mL pH 7.4 sodium phosphate buffer was added. Shaking. Adding test compound to the solution, if the solution is visually clear, till there is obvious insoluble in the solution. Sonicating for 1 hour. 2. Determination • 1 mL sample standard solution was accurately pipetted into a HPLC tube. The peak area was determined by HPLC. • 0.5 mL pH 2.1 sample solution was filtered by syringe filter and was accurately pipetted into a HPLC tube, and 0.5 mL pH 2.1 sodium phosphate buffer was accurately added. Shaking. The peak area was determined by HPLC. • 0.5 mL pH 7.4 sample solution was filtered by syringe filter and was accurately pipetted into a HPLC tube, and 0.5 mL pH 7.4 sodium phosphate buffer was accurately added. Shaking. The peak area was determined by HPLC. • HPLC condition: • Instrument: Agilent 1200 • Column: Agilent SB-C18 5 u 4.6*150 mm • Mobile phase: • Phase A: Water (containing 0.1% formic acid) • Phase B: MeOH (containing 0.1% formic acid)

IDH2-R140Q = molecular target: T1, IDH2-R140Q (Homo sapiens, UniProt P48735, R140Q); experiment: Fluorescent determination of IDH2-R140Q cell activity (2-HG in U87MGR140Q cells); format: cell-based; settings: 72 hours incubation, read-out: IC50 (2-HG inhibition)
T1 construct: expressed in transfected cells
T1 sequence (P48735 40-452 R140Q): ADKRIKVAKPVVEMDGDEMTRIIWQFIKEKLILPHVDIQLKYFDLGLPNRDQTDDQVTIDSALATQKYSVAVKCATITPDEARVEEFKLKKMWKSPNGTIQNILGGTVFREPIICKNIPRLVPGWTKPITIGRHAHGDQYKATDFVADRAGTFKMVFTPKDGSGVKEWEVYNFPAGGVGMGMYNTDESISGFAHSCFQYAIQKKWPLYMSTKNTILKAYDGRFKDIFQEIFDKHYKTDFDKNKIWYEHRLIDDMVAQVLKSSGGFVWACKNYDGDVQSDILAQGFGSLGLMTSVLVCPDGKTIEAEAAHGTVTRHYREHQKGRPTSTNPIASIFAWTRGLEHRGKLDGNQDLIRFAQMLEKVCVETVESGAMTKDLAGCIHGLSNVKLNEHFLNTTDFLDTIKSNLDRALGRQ

IDH1-R132H = molecular target: T2, IDH1-R132H (Homo sapiens, UniProt O75874, R132H); experiment: Fluorescent determination of IDH1-R132H cell activity (2-HG in U87MGR132H cells); format: cell-based; settings: 2-HG inhibition in U87MGR132H cells transfected with IDH1-R132H mutant plasmid
T2 construct: expressed in transfected cells; host or cells: U87MG cells (U87MGR132H)

[2] = Metabolic stability test in liver microsomes (mouse); format: in vitro ADME; settings: percentage of remaining compound after incubation for 30 minutes vs 0 minute; 1 μM compound; 0.5 mg/mL liver microsomes; 37° C.
Description: (§1) Male CD1 mouse liver microsomes was supplied by Research Institute for Liver Diseases (Shanghai) Co., Ltd. Male SD rat liver microsomes was supplied by BioreclamationIVT in US.
(§2) Phenacetin, glucose-6-phosphate (G-6-P), glucose-6-phosphate dehydrogenase (G-6-PD), and nicotinamide adenine dinucleotide phosphate (NADP) were supplied by Sigma-Aldrich (Missouri, USA).
(§3) 10 mM stock solution of test compound: Certain amount of test compound was weighed and dissolved in certain volume of dimethylsulfoxide (DMSO) to get the stock solution of test compound at 10 mM.
(§4) Reaction termination solution: Certain amount of phenacetin as internal standard was weighed and dissolved in acetonitrile to get the reaction termination solution at 1000 ng/mL, and stored at room temperature for use.
(§5) The stock solution of test compound was diluted to the designated concentration with organic solution (usually the mixtures of acetonitrile, methanol and water with different portions depending on the compound solution) to make the final concentration to be 1 μM and the contents of organic solvents no more than 1% (For DMSO, the controlled margin was 0.1%) in the final incubation system. 100 mM NADP, 500 mM G-6-P and 100 U/mL G-6-PDH were mixed and diluted with ultrapure water to provide the NADPH regenerating system containing 1 mM NADP, 5 mM G-6-P and 1 U/mL G-6-PD, which was pre-incubated at 37° C. water-bath for 10 min and then cooled on ice until being added into the reaction system. 20 mg/mL liver microsomes was mixed with 200 mM PBS and diluted with ultrapure water to make the concentrations of liver microsomes and PBS to be 0.5 mg/mL and 50 mM in the final incubation system, respectively. After the diluted liver microsomes was mixed with the NADPH regenerating solution, certain volumes of 100 mM EDTA and 300 mM MgCl2 (concentration of EDTA and MgCl2 in the final incubation system is 1 mM and 3 mM, respectively) were added, and the incubation system was put into 37° C. water bath. The incubation was commenced by adding the stock solution of test compound and maintained for 30 min. The incubation was terminated by adding the reaction termination solution. The 0 min sample was prepared by adding the reaction termination solution to the incubation system immediately prior to putting the system into the water bath with the addition of the stock solution of test compound. The terminated incubation mixtures were vortexed and centrifuged at 4400 rpm for 10 min, and the supernatant was collected for LC-MS/MS analysis.
(§6) The concentration of test compound was determined using LC-MS/MS method. Using the peak area ratio of the compound and the internal standard as an index, the percentage of remaining compound after incubation for 30 minutes as compared with the 0 minute sample was calculated, and the metabolic stability of the compound was evaluated.

[3] = Metabolic stability test in liver microsomes (rat); format: in vitro ADME; settings: percentage of remaining compound after incubation for 30 minutes vs 0 minute; 1 μM compound; 0.5 mg/mL liver microsomes; 37° C.
Description: as §1, §2, §3, §4, §5, §6

mutant IDH1 = settings: patients with AML or MDS having IDH1 mutations; cited from earlier work
[4] = pH 2.1 sodium phosphate buffer, read-out: Solubility pH 2.1
[5] = pH 7.4 sodium phosphate buffer, read-out: Solubility pH 7.4

T2 sequence (O75874 whole entry R132H): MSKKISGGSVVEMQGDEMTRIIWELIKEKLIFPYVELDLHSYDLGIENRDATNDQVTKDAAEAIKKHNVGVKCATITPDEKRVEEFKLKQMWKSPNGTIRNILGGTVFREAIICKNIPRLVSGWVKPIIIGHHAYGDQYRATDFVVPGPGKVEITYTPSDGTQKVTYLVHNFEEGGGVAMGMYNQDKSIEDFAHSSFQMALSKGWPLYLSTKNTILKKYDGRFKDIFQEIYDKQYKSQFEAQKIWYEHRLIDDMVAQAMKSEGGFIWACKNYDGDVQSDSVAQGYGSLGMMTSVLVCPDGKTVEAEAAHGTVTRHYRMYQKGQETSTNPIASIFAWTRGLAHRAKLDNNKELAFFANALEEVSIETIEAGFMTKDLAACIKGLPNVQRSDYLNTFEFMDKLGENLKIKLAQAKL

SMILES | solubility at 1 h [1, 4] | solubility at 1 h [1, 5] | IC50 (IDH2-R140Q) | IC50 (IDH1-R132H) | Mouse liver microsome stability [2] | Rat liver microsome stability [3] | Solubility pH 2.1 ([1]; pH 2.1 sodium phosphate buffer) | Solubility pH 7.4 ([1]; pH 7.4 sodium phosphate buffer) | patients with decreased levels of α-hydroxyglutaric acid (2HG) (mutant IDH1)
C[C@@H](Nc1nc(NCc2ccccn2)nc(C2=C(F)C(O)C(F)(F)CC2)n1)C(F)(F)F (mixture of isomers) [Compound 271] | 974 µg/mL | 124 µg/mL |  |  |  |  |  |  | 
C[C@@H](Nc1nc(N[C@H]2CCOC2)nc(C2=C(F)C(O)CCC2)n1)C(F)(F)F (mixture of isomers) [Compound 3] | > 1000 µg/mL | 716 µg/mL (≈ 1830 µM) | 866 nM |  |  |  |  |  | 
CC(C)Nc1nc(N[C@H](C)C(F)(F)F)nc(C2=CC(O)CC2)n1 (mixture of isomers) [Compound 125] | 448 µg/mL (≈ 1350 µM) | 19 µg/mL (≈ 57.3 µM) | 1670 nM |  |  |  |  |  | 
C[C@@H](Nc1nc(N[C@H](C)C(F)(F)F)nc(C2=C(F)C(O)C3(CC2)CC3)n1)C(F)(F)F (mixture of isomers) [Compound 219] | 190 µg/mL (≈ 429 µM) | 60 µg/mL (≈ 135 µM) | 707 nM | 3230 nM |  |  |  |  | 
N#Cc1ccnc(N2C(=O)CC[C@H]2C(=O)N(c2cncc(F)c2)[C@H](C(=O)NC2CC(F)(F)C2)c2ccccc2Cl)c1 [AG-120] |  |  |  |  |  |  |  |  | 98%
[2H]C1([2H])CCC(c2nc(N[C@H](C)C(F)(F)F)nc(N[C@H](C)C(F)(F)F)n2)=C(F)C1O (stereo partly drawn) [Compound 82, (*)3-(4,6-Bis(((R)-1,1,1-trifluoropropan-2-yl)amino)-1,3,5-triazin-2-yl)-2-fluorocyclohex-2-en-6,6-D2-1-ol] |  |  |  |  | 93.1% | 92.9% | 0.146 mg/mL | 0.037 mg/mL | 
C[C@@H](Nc1nc(C2=C(F)C(O)C(F)(F)CC2)nc(N2CC(F)(F)C2)n1)C(F)(F)F (some centres unmarked) [Compound 243] | 55 µg/mL (≈ 127 µM) | < 5 µg/mL | 1170 nM | > 10000 nM |  |  |  |  | 
Nc1nc(N)nc(C2=C(F)C(O)C(F)(F)CC2)n1 (centres unmarked) [Compound 284, 3-(4,6-Diamino-1,3,5-triazin-2-yl)-2,6,6-trifluorocyclohex-2-en-1-ol] | 789 µg/mL (≈ 3020 µM) | 818 µg/mL (≈ 3130 µM) |  |  |  |  |  |  | 

Now from value to compound, other results behind:

solubility at 1 h [1, 4] | solubility at 1 h [1, 5] | IC50 (IDH2-R140Q) | IC50 (IDH1-R132H) | Mouse liver microsome stability [2] | Rat liver microsome stability [3] | Solubility pH 2.1 ([1]; pH 2.1 sodium phosphate buffer) | Solubility pH 7.4 ([1]; pH 7.4 sodium phosphate buffer) | SMILES | patients with decreased levels of α-hydroxyglutaric acid (2HG) (mutant IDH1)
> 1000 µg/mL | 85 µg/mL (≈ 217 µM) | 571 nM |  |  |  |  |  | CC(C)Nc1nc(N[C@H](C)C(F)(F)F)nc(C2=C(F)C(O)CC(C)(C)C2)n1 (mixture of isomers) [Compound 9] | 
77 µg/mL (≈ 177 µM) | 21 µg/mL (≈ 48.2 µM) | 52 nM | 47 nM | 89.5% | 98.5% |  |  | C[C@@H](Nc1nc(N[C@H](C)C(F)(F)F)nc(C2=C(F)C(O)C(F)CC2)n1)C(F)(F)F (single isomer, unassigned) [Compound 97] | 
570 µg/mL (≈ 1360 µM) | 62 µg/mL (≈ 148 µM) | 232 nM |  |  |  |  |  | OC1CCCCC(c2nc(NC3CC(F)(F)C3)nc(NC3CC(F)(F)C3)n2)=C1F (centres unmarked) [Compound 20] | 
141 µg/mL (≈ 314 µM) | < 5 µg/mL | 435 nM |  |  |  |  |  | C[C@@H](Nc1nc(Nc2ccc3cccnc3c2)nc(C2=C(F)C(O)CCC2)n1)C(F)(F)F (some centres unmarked) [Compound 68] | 
64 µg/mL (≈ 145 µM) | 55 µg/mL (≈ 124 µM) | 50 nM | 3050 nM |  |  |  |  | CC(C)(C)ONc1nc(Nc2ccnc(C(F)(F)F)c2)nc(C2=C(F)C(O)CCC2)n1 (centres unmarked) [Compound 71] | 
 |  | 205 nM | 781 nM | 88.5% | 97.9% |  |  | [2H]C1([2H])CCC(c2nc(N[C@@H](C)C(F)(F)F)nc(N[C@@H](C)C(F)(F)F)n2)=C(F)C1O (some centres unmarked) [Compound 87] | 
 |  | 131 nM | 1140 nM | 65.4% | 82.6% |  |  | CC(C)Nc1nc(N[C@H](C)C(F)(F)F)nc(C2=C(F)C(O)C(F)(F)CC2)n1 (stereo partly drawn) [Compound 94, 2,6,6-Trifluoro-3-(4-(isopropylamino)-6-(((R)-1,1,1-trifluoropropan-2-yl)amino)-1,3,5-triazin-2-yl)cyclohex-2-en-1-ol] | 
 |  | 64 nM | 203 nM | 28.7% | 49.8% |  |  | OC1C=C(c2nc(NC3CC(F)(F)C3)nc(NC3CC(F)(F)C3)n2)CCC1 (centres unmarked) [Compound 127] | 
 |  | 98 nM | 733 nM | 91.3% | 92.1% |  |  | OC1C(F)=C(c2nc(NC3CC(F)(F)C3)nc(NC3CC(F)(F)C3)n2)CCC1(F)F (centres unmarked) [Compound 203] | 
 |  | 57 nM | 213 nM | 86.9% | 95.1% |  |  | C[C@@H](Nc1nc(NC2CC(F)(F)C2)nc(C2=C(F)C(O)C(F)(F)CC2)n1)C(F)(F)F (stereo partly drawn) [Compound 259, 3-(4-((3,3-Difluorocyclobutyl)amino)-6-(((R)-1,1,1-trifluoropropan-2-yl)amino)-1,3,5-triazin-2-yl)-2,6,6-trifluorocyclohex-2-en-1-ol] | 
